{
  "source": "paper PMC8398847",
  "about": "“Isavuconazole: Thermodynamic Evaluation of Processes Sublimation, Dissolution and Partition in Pharmaceutically Relevant Media” (Molecules, 2021)",
  "key": {"[1]": {"experiment": "Vapor pressure by transpiration (inert gas-carrier transfer) method; sublimation thermodynamic functions", "format": "physicochemical", "details": "for lnp: p in Pa", "experimental": "The thermodynamic functions of sublimation were calculated as the fitting coefficients of the Clarke and Glew equation [17]:(1) Rlnp/p^0=ΔcrgGm°(θ)/θ+ΔcrgHm°(θ)(1/θ−1/T)+ΔcrgCp,m°(θ)(θ/T−1+lnT/θ) where ΔcrgHm°(θ) is the standard molar sublimation enthalpy, ΔcrgGm°(θ) is the standard molar Gibbs energy of sublimation, and ΔcrgCp,m°(θ) is the difference between the constant pressure standard molar heat capacity Cp,m°(g) of the gaseous compound and the constant pressure standard molar heat capacity Cp,m°(cr) of the crystalline compound. The value is the arbitrary reference temperature θ = 298.15 K; p^0 = 10^5 Pa is the reference pressure.\nThe transpiration method was used for the sublimation experiment. A stream of an inert gas (nitrogen) was passed over a sample at the constant temperature and flow rate; saturation of the gas with the substance vapor was achieved by low transpiration rate of gas. Then, the sublimated quantity of condensed vapor was determined. The volume of the inert gas and the amount of the sublimated material were used for calculation the vapor pressure over the sample of compound at this temperature. The following procedure was used for determination the amount of sublimed substance. The condensed sample was dissolved in a known volume of solvent Vsol. The mass of the substance was determined by the measurement of absorbance A of its solution (spectrophotometer Cary-50, Varian, Palo Alto, CA, USA, Software Version 3.00 (339)). According to the Lambert–Beer law the concentration of the solution c (mol·L^−1) can express knowing a value of the extinction coefficient ε (l·mol^−1·cm^−1) of the studied compound dissolved in the solvent and an absorbing path length (l):A = εcl(5) where l is an absorbing path length. Calculation the mass of sublimed compound was performed according to the equation:m = cVsolM(6)\nM is the molar mass of the studied substance.\nThe vapor pressure p at each temperature was determined from the amount of the substance collected within a known time:p = mRTa/VM(7) where V is the volume of the gaseous nitrogen evaluated from the time measurement and the flow rate at the flow meter temperature Ta and the atmospheric pressure. Uncertainties for transpiration experiment parameters (T, m, Ta, V) are reported as standard deviations (Table 1). The combined standard uncertainty of vapor pressure measurements were estimated taking into account uncertainties of all variables involved in eq 7.\nThe details of equipment and experimental procedure are given in [33]. The sublimation technique was tested with benzoic acid as standard. The experimental vapor pressure values were obtained in the temperature interval of (307–385) K and were in good agreement with the results of studies within the limits of experimental error (Figure S7). The standard sublimation enthalpy of benzoic acid measured by us was 90.5 ± 0.3 kJ·mol^−1 and consistent with recommended by IUPAC value—89.7 ± 0.5 kJ·mol^−1 [38]. Each experiment at fixed temperature was repeated three times with the standard deviation of up to 5%."}, "[2]": {"experiment": "PXRD analysis of bottom phases after solubility experiments", "format": "physicochemical", "details": "all the studied solvents; no solvated forms", "experimental": "The IVZ solubility values in buffer solutions of different acidity, ethanol, propanol, 1-octanol and hexane within the temperature range of 293.15–313.15 K were determined by the isothermal saturation method and are presented in Table 2 and Figure 5. After the solubility experiments, the bottom phases were removed from the saturated solutions and analyzed by the PXRD method.\nAfter the solubility study was complete, PXRD analysis was performed on isavuconazole powders recovered from solvents. All samples were measured at 40 kV and 40 mA using a Bruker D8 Advance diffractometer with CuKa radiation (λ = 1.5406 Å) at room temperature. Diffraction patterns for the samples were collected by changing the angle of diffraction (2θ) from 5° to 30° with a step size 0.03°."}, "[3]": {"details": "298.15 K, experimental, Clarke and Glew equation"}},
  "note": "“And” between values parts separate entries of the source, which are not always exact repeats. Identical values can stand only once.",
  "data": [
    {"smiles": "C[C@@H](c1nc(-c2ccc(C#N)cc2)cs1)[C@](O)(Cn1cncn1)c1cc(F)ccc1F", "note": "[IVZ, Isavuconazole]", "values": [
      {"measurement": "standard molar Gibbs energy of sublimation ΔcrgGm°(298.15 K)", "setting": "[1]; [3]", "value": "68.9 ± 0.2", "unit": "kJ/mol"},
      {"measurement": "standard molar enthalpy of sublimation ΔcrgHm°(298.15 K)", "setting": "[1]; [3]", "value": "138.1 kJ/mol and 138.1 ± 0.5 kJ/mol"},
      {"measurement": "standard molar Gibbs energy of sublimation ΔcrgGm°(298.15 K)", "setting": "[1]; 298.15 K, experimental, Clarke and Glew equation, listed as Isavuconazole", "value": 68.9, "unit": "kJ/mol"},
      {"measurement": "vapor pressure 10^3 p", "setting": "[1]; 365.15 K", "value": 1.95, "unit": "Pa"},
      {"measurement": "saturated vapor pressure values", "setting": "[1]; 365.15–383.15 K", "value": "0.001–0.01 Pa"},
      {"measurement": "vapor pressure 10^3 p", "setting": "[1]; 367.15 K", "value": 2.50, "unit": "Pa"},
      {"measurement": "vapor pressure 10^3 p", "setting": "[1]; 369.15 K", "value": 3.19, "unit": "Pa"},
      {"measurement": "vapor pressure 10^3 p", "setting": "[1]; 371.15 K", "value": 4.02, "unit": "Pa"},
      {"measurement": "vapor pressure 10^3 p", "setting": "[1]; 372.15 K", "value": 4.55, "unit": "Pa"},
      {"measurement": "vapor pressure 10^3 p", "setting": "[1]; 373.15 K", "value": 5.11, "unit": "Pa"},
      {"measurement": "vapor pressure 10^3 p", "setting": "[1]; 374.15 K", "value": 5.72, "unit": "Pa"},
      {"measurement": "vapor pressure 10^3 p", "setting": "[1]; 376.15 K", "value": 7.22, "unit": "Pa"},
      {"measurement": "vapor pressure 10^3 p", "setting": "[1]; 378.15 K", "value": 8.83, "unit": "Pa"},
      {"measurement": "vapor pressure 10^3 p", "setting": "[1]; 379.15 K", "value": 9.83, "unit": "Pa"},
      {"measurement": "vapor pressure 10^3 p", "setting": "[1]; 380.15 K", "value": 11.19, "unit": "Pa"},
      {"measurement": "vapor pressure 10^3 p", "setting": "[1]; 381.15 K", "value": 12.30, "unit": "Pa"},
      {"measurement": "vapor pressure 10^3 p", "setting": "[1]; 382.15 K", "value": 13.79, "unit": "Pa"},
      {"measurement": "vapor pressure 10^3 p", "setting": "[1]; 383.15 K", "value": 15.37, "unit": "Pa"},
      {"measurement": "lnp", "setting": "[1]; 365.15 K", "value": "−6.241"},
      {"measurement": "lnp", "setting": "[1]; 367.15 K", "value": "−5.991"},
      {"measurement": "lnp", "setting": "[1]; 369.15 K", "value": "−5.749"},
      {"measurement": "lnp", "setting": "[1]; 371.15 K", "value": "−5.515"},
      {"measurement": "lnp", "setting": "[1]; 372.15 K", "value": "−5.393"},
      {"measurement": "lnp", "setting": "[1]; 373.15 K", "value": "−5.277"},
      {"measurement": "lnp", "setting": "[1]; 374.15 K", "value": "−5.163"},
      {"measurement": "lnp", "setting": "[1]; 376.15 K", "value": "−4.931"},
      {"measurement": "lnp", "setting": "[1]; 378.15 K", "value": "−4.729"},
      {"measurement": "lnp", "setting": "[1]; 379.15 K", "value": "−4.622"},
      {"measurement": "lnp", "setting": "[1]; 380.15 K", "value": "−4.493"},
      {"measurement": "lnp", "setting": "[1]; 381.15 K", "value": "−4.398"},
      {"measurement": "lnp", "setting": "[1]; 382.15 K", "value": "−4.283"},
      {"measurement": "lnp", "setting": "[1]; 383.15 K", "value": "−4.175"},
      {"measurement": "ΔcrgSm°(298.15 K)", "setting": "[1]; sublimation, 298.15 K", "value": "230.4 ± 4.6", "unit": "J·mol^−1·K^−1"},
      {"measurement": "ΔcrgCp,m°", "setting": "[1]; sublimation, gas minus crystal heat capacity", "value": "−71.8", "unit": "J·mol^−1·K^−1"},
      {"measurement": "solid-phase stability during solubility experiments (PXRD)", "setting": "[2]", "value": "stable"}
    ]}
  ]
}
